Results reported in publication PMC5361891 (Journal of chemical information and modeling, 2017).

Key:
human 5-HT6R = human 5-HT6R (Homo sapiens, UniProt P50406); assay: Radioligand binding assay, [3H]-LSD displacement; settings: read-out: Ki 5-HT6; HEK293 cell membranes, 2 nM [3H]-LSD, 37 °C 1 h
human 5-HT2AR = human 5-HT2AR (Homo sapiens, UniProt P28223); assay: Radioligand binding assay, [3H]-Ketanserin displacement; settings: read-out: Ki 5-HT2A; HEK293 cell membranes, 1.0 nM [3H]-Ketanserin, 37 °C 1 h
Sequence of human 5-HT2AR (P28223 whole entry): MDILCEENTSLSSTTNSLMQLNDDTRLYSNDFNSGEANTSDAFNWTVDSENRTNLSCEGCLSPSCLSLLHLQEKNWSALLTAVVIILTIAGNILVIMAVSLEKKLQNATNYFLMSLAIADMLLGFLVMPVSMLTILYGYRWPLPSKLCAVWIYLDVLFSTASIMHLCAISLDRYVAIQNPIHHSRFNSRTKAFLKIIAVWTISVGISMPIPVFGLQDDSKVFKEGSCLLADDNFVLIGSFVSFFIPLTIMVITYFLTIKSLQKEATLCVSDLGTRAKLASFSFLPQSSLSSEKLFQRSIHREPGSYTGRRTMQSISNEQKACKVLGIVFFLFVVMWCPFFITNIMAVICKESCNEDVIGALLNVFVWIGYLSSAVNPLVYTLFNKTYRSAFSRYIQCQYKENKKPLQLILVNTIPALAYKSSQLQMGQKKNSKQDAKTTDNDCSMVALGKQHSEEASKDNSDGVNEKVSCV

human 5-HT7bR = human 5-HT7bR (Homo sapiens, UniProt P34969); assay: Radioligand binding assay, [3H]-5-CT displacement; settings: read-out: Ki 5-HT7; HEK293 cell membranes, 0.6 nM [3H]-5-CT, 37 °C 1 h
Sequence of human 5-HT7bR (P34969 1-432 limits assumed): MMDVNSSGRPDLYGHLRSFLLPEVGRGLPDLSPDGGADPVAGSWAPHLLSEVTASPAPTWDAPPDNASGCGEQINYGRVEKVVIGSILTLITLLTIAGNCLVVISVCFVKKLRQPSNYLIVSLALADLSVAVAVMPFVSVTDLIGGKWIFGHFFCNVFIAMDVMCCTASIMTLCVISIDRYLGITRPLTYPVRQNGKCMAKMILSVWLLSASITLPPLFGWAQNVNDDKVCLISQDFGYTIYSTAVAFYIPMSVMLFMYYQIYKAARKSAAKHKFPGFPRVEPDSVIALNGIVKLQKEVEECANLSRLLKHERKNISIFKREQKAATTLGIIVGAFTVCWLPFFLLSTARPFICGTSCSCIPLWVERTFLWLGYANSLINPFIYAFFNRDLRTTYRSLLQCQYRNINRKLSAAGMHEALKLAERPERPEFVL

5-HT1AR = settings: affinity toward 5-HT1AR; cited from earlier work

Sequence of human 5-HT6R (P50406 whole entry): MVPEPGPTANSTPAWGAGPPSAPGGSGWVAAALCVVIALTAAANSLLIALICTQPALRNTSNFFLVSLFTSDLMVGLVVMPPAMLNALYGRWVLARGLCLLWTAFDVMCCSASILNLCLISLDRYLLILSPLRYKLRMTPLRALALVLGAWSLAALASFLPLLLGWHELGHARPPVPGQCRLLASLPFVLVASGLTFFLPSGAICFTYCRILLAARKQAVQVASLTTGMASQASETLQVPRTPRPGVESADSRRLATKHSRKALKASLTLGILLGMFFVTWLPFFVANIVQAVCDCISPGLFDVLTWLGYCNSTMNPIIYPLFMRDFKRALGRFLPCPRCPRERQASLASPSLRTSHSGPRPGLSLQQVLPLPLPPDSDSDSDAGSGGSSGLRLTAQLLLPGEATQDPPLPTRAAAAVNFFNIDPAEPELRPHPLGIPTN

| Compound | Ki (human 5-HT6R) [µM] | Ki (human 5-HT2AR) [µM] | Ki (human 5-HT7bR) [µM] | Ki (5-HT1AR) [µM] |
| --- | --- | --- | --- | --- |
| COC(=O)c1ccc(C2c3c(-c4ccccc4O)n[nH]c3C(=O)N2Cc2ccncc2)cc1 (stereo not shown) [D174-0581] | 13.5 | 3.75 | 6.48 |  |
| COc1ccccc1N1CCN(CCCCNC(=O)C23CC4CC(C2)C(C4)C3)CC1 [NBUMP, 4-[4-(1-noradamantanecarboxamido)butyl]-1-(2-methoxyphenyl)piperazine] |  |  |  | 0.0001 |
